Measured values as given in patent US20100105727A1, “NOVEL BENZAMIDE DERIVATIVES AND PROCESS FOR THE PREPARTION THEREOF” (DONG-A-PHARM. CO., LTD., priority 2007, published 2010).

Biological target: T1, human 5-HT4 receptor (Homo sapiens, UniProt Q13639)
T1 construct: expressed in transfected cells; host or cells: COS-7
Test: Binding affinity of compounds for 5-HT4 receptor (radioligand displacement, membrane lysates of COS-7 cells)
Conditions: inhibition of specific binding of 0.595 nM [H3]-AGR113808; COS-7 cell membrane lysates expressing human 5-HT4 receptor
Protocol: For this purpose, COS-7 cells expressing the human 5-HT4 receptor were constructed and lysed to obtain cell membrane lysates which were then used in binding assay experiments. For binding assay, the membrane lysates were mixed and incubated with different concentrations of test materials and [H3]-AGR113808. […] After incubation was completed, the reaction products were collected in a GF/B glass fiber filter using a Packard cell harvester, and the bound radioactivity was then determined using a liquid cell scintillation counter (Packard TopCount NXT™, Perkin Elmer). Specific binding of the radioligand to the 5-HT4 receptor was calculated by subtracting the non-specific binding of the radioligand from the total radioligand binding. IC50 was calculated from % inhibition of specific binding of the radioligand to the 5-HT4 receptor, with respect to varying concentrations of the test materials.

T1 sequence (Q13639 whole entry): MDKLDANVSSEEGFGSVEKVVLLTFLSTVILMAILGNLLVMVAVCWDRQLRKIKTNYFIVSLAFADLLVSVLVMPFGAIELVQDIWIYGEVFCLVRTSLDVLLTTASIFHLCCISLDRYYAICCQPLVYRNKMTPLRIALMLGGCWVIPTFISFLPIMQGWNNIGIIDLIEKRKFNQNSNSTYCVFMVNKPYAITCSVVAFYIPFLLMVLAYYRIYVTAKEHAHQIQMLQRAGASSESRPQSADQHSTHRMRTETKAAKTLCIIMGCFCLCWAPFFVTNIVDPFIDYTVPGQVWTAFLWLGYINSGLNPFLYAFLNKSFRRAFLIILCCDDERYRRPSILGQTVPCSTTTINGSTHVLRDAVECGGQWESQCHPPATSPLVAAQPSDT

Row | IC50 [nM] | Compound
1 | 108 | COc1cc(N)c(Cl)cc1C(=O)N[C@H]1CCN(CC2CCN(C(=S)C(C)C)CC2)C[C@H]1OC (relative stereo) [Compound 30, cis-4-amino-5-chloro-N-[1-((1-(2-methylpropanethioyl)piperidin-4-yl)methyl)-3-methoxypiperidin-4-yl]-2-methoxybenzamide]
2 | 47 | CCSC(=O)N1CCC(CN2CC[C@H](NC(=O)c3cc(Cl)c(N)cc3OC)[C@H](OC)C2)CC1 (relative stereo) [Compound 39, S-ethyl 4-[(cis-4-(4-amino-5-chloro-2-methoxybenzamido)-3-methoxypiperidin-1-yl)methyl]piperidine-1-carbothioate]
3 | 130 | COC(=O)N1CCC(CN2CC[C@H](NC(=O)c3cc(Cl)c(N)cc3OC)[C@H](OC)C2)CC1 (relative stereo) [Compound 5, methyl 4-[(cis-4-(4-amino-5-chloro-2-methoxybenzamido)-3-methoxypiperidin-1-yl)methyl]piperidine-1-carboxylate]
4 | 85 | COc1cc(N)c(Cl)cc1C(=O)N[C@H]1CCN(CCCCCC(=O)Nc2cc(C)cc(C)n2)C[C@H]1OC (relative stereo) [Compound 60, cis-4-amino-5-chloro-N-[1-(6-oxo-6-(4,6-dimethylpyridin-2-ylamino)hexyl)-3-methoxypiperidin-4-yl]-2-methoxybenzamide]
5 | 53 | CCCCOC(=O)N1CCC(CN2CC[C@H](NC(=O)c3cc(Cl)c(N)cc3OC)[C@H](OC)C2)CC1 (relative stereo) [Compound 7, butyl 4-[(cis-4-(4-amino-5-chloro-2-methoxybenzamido)-3-methoxypiperidin-1-yl)methyl]piperidine-1-carboxylate]
6 | 58 | CCCC(C)C(=O)N1CCC(CN2CC[C@H](NC(=O)c3cc(Cl)c(N)cc3OC)[C@H](OC)C2)CC1 (relative stereo) [Compound 24, cis-4-amino-5-chloro-N-[1-((1-(2-methylpentanoyl)piperidin-4-yl)methyl)-3-methoxypiperidin-4-yl]-2-methoxybenzamide]
7 | 30 | CCCCC(CC)COC(=O)N1CCC(CN2CC[C@H](NC(=O)c3cc(Cl)c(N)cc3OC)[C@H](OC)C2)CC1 (relative stereo) [Compound 11, 2-ethylhexyl 4-[(cis-4-(4-amino-5-chloro-2-methoxybenzamido)-3-methoxypiperidin-1-yl)methyl]piperidine-1-carboxylate]
8 | 116 | COc1cc(N)c(Cl)cc1C(=O)N[C@@H]1CCN(CC2CCN(S(C)(=O)=O)CC2)C[C@@H]1OC [Compound 44, (3S,4R)-4-amino-5-chloro-N-[1-((1-(methylsulfonyl)piperidin-4-yl)methyl)-3-methoxypiperidin-4-yl]-2-methoxybenzamide]
9 | 146 | COc1cc(N)c(Cl)cc1C(=O)N[C@H]1CCN(CC2CCN(C(=O)OCCCC(C)C)CC2)C[C@H]1OC (relative stereo) [Compound 13, 4-methyl-pentyl 4-[(cis-4-(4-amino-5-chloro-2-methoxybenzamido)-3-methoxypiperidin-1-yl)methyl]piperidine-1-carboxylate]
10 | 151 | CCOC(=O)N1CCC(CCN2CC[C@H](NC(=O)c3cc(Cl)c(N)cc3OC)[C@H](OC)C2)CC1 (relative stereo) [Compound 3, ethyl 4-[2-(cis-4-(4-amino-5-chloro-2-methoxybenzamido)-3-methoxypiperidin-1-yl)ethyl]piperidine-1-carboxylate]
11 | 214 | COc1cc(N)c(Cl)cc1C(=O)N[C@H]1CCN(CC2CCN(C(C)=S)CC2)C[C@H]1OC (relative stereo) [Compound 31, cis-4-amino-5-chloro-N-[1-((1-ethanethioylpiperidin-4-yl)methyl)-3-methoxypiperidin-4-yl]-2-methoxybenzamide]
12 | 106 | CCCC(=O)N1CCC(CN2CC[C@H](NC(=O)c3cc(Cl)c(N)cc3OC)[C@H](OC)C2)CC1 (relative stereo) [Compound 20, cis-4-amino-5-chloro-N-[1-((1-butyrylpiperidin-4-yl)methyl)-3-methoxypiperidin-4-yl]-2-methoxybenzamide]
13 | 175 | COc1cc(N)c(Cl)cc1C(=O)N[C@H]1CCN(CC2CCN(C(=S)CC(C)C)CC2)C[C@H]1OC (relative stereo) [Compound 36, cis-4-amino-5-chloro-N-[1-((1-(3-methylbutanethioyl)piperidin-4-yl)methyl)-3-methoxypiperidin-4-yl]-2-methoxybenzamide]
14 | 47 | COc1cc(N)c(Cl)cc1C(=O)N[C@H]1CCN(CC2CCN(S(=O)(=O)C(C)C)CC2)C[C@H]1OC (relative stereo) [Compound 42, cis-4-amino-5-chloro-N-[1-((1-(isopropylsulfonyl)piperidin-4-yl)methyl)-3-methoxypiperidin-4-yl]-2-methoxybenzamide]
15 | 148 | CCCC(=S)N1CCC(CN2CC[C@H](NC(=O)c3cc(Cl)c(N)cc3OC)[C@H](OC)C2)CC1 (relative stereo) [Compound 35, cis-4-amino-5-chloro-N-[1-((1-butanethioylpiperidin-4-yl)methyl)-3-methoxypiperidin-4-yl]-2-methoxybenzamide]
16 | 217 | COc1cc(N)c(Cl)cc1C(=O)N[C@H]1CCN(CC2CCN(C(=S)C(C)(C)C)CC2)C[C@H]1OC (relative stereo) [Compound 38, cis-4-amino-5-chloro-N-[1-((1-(2,2-dimethylpropanethioyl)piperidin-4-yl)methyl)-3-methoxypiperidin-4-yl]-2-methoxybenzamide]
17 | 192 | CCC(C)CCOC(=O)N1CCC(CN2CC[C@H](NC(=O)c3cc(Cl)c(N)cc3OC)[C@H](OC)C2)CC1 (relative stereo) [Compound 12, 3-methyl-pentyl 4-[(cis-4-(4-amino-5-chloro-2-methoxybenzamido)-3-methoxypiperidin-1-yl)methyl]piperidine-1-carboxylate]
18 | 108 | COc1cc(N)c(Cl)cc1C(=O)N[C@H]1CCN(CC2CCN(C(=O)OCC(C)C)CC2)C[C@H]1OC (relative stereo) [Compound 9, isobutyl 4-[(cis-4-(4-amino-5-chloro-2-methoxybenzamido)-3-methoxypiperidin-1-yl)methyl]piperidine-1-carboxylate]
19 | 61 | CCCCCC(=O)N1CCC(CN2CC[C@H](NC(=O)c3cc(Cl)c(N)cc3OC)[C@H](OC)C2)CC1 (relative stereo) [Compound 23, cis-4-amino-5-chloro-N-[1-((1-hexanoylpiperidin-4-yl)methyl)-3-methoxypiperidin-4-yl]-2-methoxybenzamide]
20 | 167 | COc1cc(N)c(Cl)cc1C(=O)N[C@H]1CCN(CC2CCN(S(C)(=O)=O)CC2)C[C@H]1OC (relative stereo) [Compound 43, cis-4-amino-5-chloro-N-[1-((1-(methylsulfonyl)piperidin-4-yl)methyl)-3-methoxypiperidin-4-yl]-2-methoxybenzamide]
21 | 130 | COc1cc(N)c(Cl)cc1C(=O)N[C@H]1CCN(CC2CCN(C(=O)OC(C)C)CC2)C[C@H]1OC (relative stereo) [Compound 8, isopropyl 4-[(cis-4-(4-amino-5-chloro-2-methoxybenzamido)-3-methoxypiperidin-1-yl)methyl]piperidine-1-carboxylate]
22 | 175 | COc1cc(N)c(Cl)cc1C(=O)N[C@H]1CCN(CC2CCN(C(=S)CCC(C)C)CC2)C[C@H]1OC (relative stereo) [Compound 37, cis-4-amino-5-chloro-N-[1-((1-(4-methylpentanethioyl)piperidin-4-yl)methyl)-3-methoxypiperidin-4-yl]-2-methoxybenzamide]
23 | 52 | CCCCCC(=S)N1CCC(CN2CC[C@H](NC(=O)c3cc(Cl)c(N)cc3OC)[C@H](OC)C2)CC1 (relative stereo) [Compound 34, cis-4-amino-5-chloro-N-[1-((1-hexanethioylpiperidin-4-yl)methyl)-3-methoxypiperidin-4-yl]-2-methoxybenzamide]
24 | 107 | CCCCC(=S)N1CCC(CN2CC[C@H](NC(=O)c3cc(Cl)c(N)cc3OC)[C@H](OC)C2)CC1 (relative stereo) [Compound 33, cis-4-amino-5-chloro-N-[1-((1-pentanethioylpiperidin-4-yl)methyl)-3-methoxypiperidin-4-yl]-2-methoxybenzamide]
25 | 53 | COc1cc(N)c(Cl)cc1C(=O)N[C@H]1CCN(CCC(=O)Nc2ccc3ncccc3c2)C[C@H]1OC (relative stereo) [Compound 57, cis-4-amino-5-chloro-N-[1-(3-oxo-3-(quinolin-6-ylamino)propyl)-3-methoxypiperidin-4-yl]-2-methoxybenzamide]
26 | 44 | COc1cc(N)c(Cl)cc1C(=O)N[C@H]1CCN(CCCCCC(=O)Nc2ccc3[nH]ccc3c2)C[C@H]1OC (relative stereo) [Compound 62, cis-4-amino-5-chloro-N-[1-(6-oxo-6-(1H-indol-5-ylamino)hexyl)-3-methoxypiperidin-4-yl]-2-methoxybenzamide]
27 | 89 | COc1cc(N)c(Cl)cc1C(=O)N[C@H]1CCN(CC2CCN(C(=O)CCC(C)C)CC2)C[C@H]1OC (relative stereo) [Compound 27, cis-4-amino-5-chloro-N-[1-((1-(4-methylpentanoyl)piperidin-4-yl)methyl)-3-methoxypiperidin-4-yl]-2-methoxybenzamide]
28 | 45 | COc1cc(N)c(Cl)cc1C(=O)N[C@H]1CCN(CC2CCN(C(=O)CC(C)(C)C)CC2)C[C@H]1OC (relative stereo) [Compound 26, cis-4-amino-5-chloro-N-[1-((1-(3,3-dimethylbutanoyl)piperidin-4-yl)methyl)-3-methoxypiperidin-4-yl]-2-methoxybenzamide]
